PMC5684193 (2017)

Legend:
[1] = system: FAM-labeled CBA-0 (DNA, aptamer) CCCCCTGGGTCGGGAGGGAAGGGGGTTGGGGGTGCGG; test: DMS footprinting; conditions: 140 mM NaCl, 2.5 mM KCl, K/Na phosphate (PBS), 2.5 mM MgCl2; binding buffer, room temperature
[2] = system: CBA-1-1/CBA-1-2 (DNA, aptamer) CCCCCTGGGTCGGGAGGGAAGGGGGT/TGGGGGTGCGGG; test: UV melting at 265 nm; conditions: 140 mM NaCl, 2.5 mM KCl, K/Na phosphate (PBS), 2.5 mM MgCl2; PBS with MgCl2, pH 7.4
[3] = system: CBA-1 (DNA, aptamer) CCCCCTGGGTCGGGAGGGAAGGGGGTTGGGGGTGCGGG; test: UV melting at 265 nm; conditions: 140 mM NaCl, 2.5 mM KCl, K/Na phosphate (PBS), 2.5 mM MgCl2; PBS with MgCl2, pH 7.4; 4 µM DNA, 8 µM codeine
[4] = system: CBA-1-A14AP (DNA, aptamer, 2-aminopurine at 14) CCCCCTGGGTCGGGAGGGAAGGGGGTTGGGGGTGCGGG; test: 2-aminopurine fluorescence quenching; conditions: 140 mM NaCl, 2.5 mM KCl, K/Na phosphate (PBS), 2.5 mM MgCl2; 1 µM codeine, 25 °C
[5] = system: CBA-1-AAT (DNA, aptamer) TTTCCCCCTGGGTCGGGAGGGAAGGGGGAAATTAAAGGGGGTGCGGG; test: ITC; conditions: 140 mM NaCl, 2.5 mM KCl, K/Na phosphate (PBS), 2.5 mM MgCl2; PBS with MgCl2, pH 7.4, 25 °C
[6] = system: CBA-1-GGC-4G4 (DNA, aptamer) CCCCCCCCTGGGGTCGGGGAGGGGAAGGGGGGGGTTGGGGGGGGTGCGGGG; test: ITC; conditions: 140 mM NaCl, 2.5 mM KCl, K/Na phosphate (PBS), 2.5 mM MgCl2; PBS with MgCl2, pH 7.4, 25 °C
[7] = system: CBA-1-G34R (DNA, aptamer) CCCCCTGGGTCGGGAGGGAAGGGGGTTGGGGGTCGGG; test: ITC; conditions: 140 mM NaCl, 2.5 mM KCl, K/Na phosphate (PBS), 2.5 mM MgCl2; PBS with MgCl2, pH 7.4, 25 °C; 250 µM codeine in syringe
[8] = system: FAM-labeled CBA-1 (DNA, aptamer) CCCCCTGGGTCGGGAGGGAAGGGGGTTGGGGGTGCGGG; test: DMS footprinting; conditions: 140 mM NaCl, 2.5 mM KCl, K/Na phosphate (PBS), 2.5 mM MgCl2; binding buffer, room temperature
[9] = system: CBA-1-1/CBA-1-2 (DNA, aptamer) CCCCCTGGGTCGGGAGGGAAGGGGGT/TGGGGGTGCGGG; test: 1H NMR; conditions: 140 mM NaCl, 2.5 mM KCl, K/Na phosphate (PBS), 10% D2O, 25 °C, 200 µM DNA, 400 µM codeine
[10] = system: CBA-1-G14A (DNA, aptamer) CCCCCTGGGTCGGAAGGGAAGGGGGTTGGGGGTGCGGG; test: ITC; conditions: 140 mM NaCl, 2.5 mM KCl, K/Na phosphate (PBS), 2.5 mM MgCl2; PBS with MgCl2, pH 7.4, 25 °C
[11] = system: CBA-1-A20AP (DNA, aptamer, 2-aminopurine at 20) CCCCCTGGGTCGGGAGGGAAGGGGGTTGGGGGTGCGGG; test: 2-aminopurine fluorescence quenching; conditions: 140 mM NaCl, 2.5 mM KCl, K/Na phosphate (PBS), 2.5 mM MgCl2; 1 µM codeine, 25 °C
[12] = system: CBA-1-A15AP (DNA, aptamer, 2-aminopurine at 15) CCCCCTGGGTCGGGAGGGAAGGGGGTTGGGGGTGCGGG; test: 2-aminopurine fluorescence quenching; conditions: 140 mM NaCl, 2.5 mM KCl, K/Na phosphate (PBS), 2.5 mM MgCl2; 1 µM codeine, 25 °C
[13] = system: CBA-1-G34C35R (DNA, aptamer) CCCCCTGGGTCGGGAGGGAAGGGGGTTGGGGGTGGG; test: ITC; conditions: 140 mM NaCl, 2.5 mM KCl, K/Na phosphate (PBS), 2.5 mM MgCl2; PBS with MgCl2, pH 7.4, 25 °C; 250 µM codeine in syringe
[14] = system: CBA-1-strand21 (DNA, aptamer) GGGGGTGGGTCGGGAGGGAACCCCCTTGGGGGTGCGGG; test: ITC; conditions: 140 mM NaCl, 2.5 mM KCl, K/Na phosphate (PBS), 2.5 mM MgCl2; PBS with MgCl2, pH 7.4, 25 °C; 250 µM codeine in syringe
[15] = system: CBA-0 (DNA, aptamer) CCCCCTGGGTCGGGAGGGAAGGGGGTTGGGGGTGCGG; test: ITC; conditions: 140 mM NaCl, 2.5 mM KCl, K/Na phosphate (PBS), 2.5 mM MgCl2; PBS with MgCl2, pH 7.4, 25 °C
[16] = system: CBA-1-3G3T (DNA, aptamer) CCCCCTTTTTCTTTATTTAAGGGGGTTGGGGGTGCTTT; test: ITC; conditions: 140 mM NaCl, 2.5 mM KCl, K/Na phosphate (PBS), 2.5 mM MgCl2; PBS with MgCl2, pH 7.4, 25 °C; 250 µM codeine in syringe
[17] = system: CBA-1 (DNA, aptamer) CCCCCTGGGTCGGGAGGGAAGGGGGTTGGGGGTGCGGG; test: ITC; conditions: 140 mM NaCl, 2.5 mM KCl, K/Na phosphate (PBS), 2.5 mM MgCl2; PBS with MgCl2, pH 7.4, 25 °C
[18] = system: CBA-1-strand3 (DNA, aptamer) CCCCCTGGGTCGGGAGGGAAGGGGGTTTATATTGCGGG; test: ITC; conditions: 140 mM NaCl, 2.5 mM KCl, K/Na phosphate (PBS), 2.5 mM MgCl2; PBS with MgCl2, pH 7.4, 25 °C; 250 µM codeine in syringe
[19] = system: CBA-1-strand1 (DNA, aptamer) AAAAATGGGTCGGGAGGGAAGGGGGTTGGGGGTGCGGG; test: ITC; conditions: 140 mM NaCl, 2.5 mM KCl, K/Na phosphate (PBS), 2.5 mM MgCl2; PBS with MgCl2, pH 7.4, 25 °C; 250 µM codeine in syringe
[20] = system: CBA-1-GGC (DNA, aptamer) CCCCCCCCTGGGTCGGGAGGGAAGGGGGGGGTTGGGGGGGGTGCGGG; test: ITC; conditions: 140 mM NaCl, 2.5 mM KCl, K/Na phosphate (PBS), 2.5 mM MgCl2; PBS with MgCl2, pH 7.4, 25 °C
[21] = system: CBA-1-G34T (DNA, aptamer) CCCCCTGGGTCGGGAGGGAAGGGGGTTGGGGGTTCGGG; test: ITC; conditions: 140 mM NaCl, 2.5 mM KCl, K/Na phosphate (PBS), 2.5 mM MgCl2; PBS with MgCl2, pH 7.4, 25 °C

- binding [1]: yes
- ∆Tm [2]: ~ 4 °C
- binding [3]: yes
- binding [4]: yes
- Kd [5]: 70 ± 30 nM
- Kd [6]: 300 ± 170 nM
- binding [7]: no
- binding [8]: yes
- binding [9]: yes
- binding [10]: yes
- binding [11]: yes
- binding [12]: yes
- binding [13]: no
- binding [14]: no
- Kd [15]: 250 ± 80 nM
- binding [16]: no
- Kd [17]: 70 ± 10 nM
- binding [18]: no
- binding [19]: no
- Kd [20]: 50 ± 20 nM
- binding [21]: weak
SMILES: COc1ccc2c3c1O[C@H]1[C@@H](O)C=C[C@H]4[C@@H](C2)N(C)CC[C@@]341
